# What was measured:
# [1] = target: T1, 5-HT2A receptor (Homo sapiens, UniProt P28223); test: h5-HT2A affinity, antagonist radioligand [3H]ketanserin; format: binding
# [2] = target: T1, 5-HT2A receptor; test: h5-HT2A affinity, agonist radioligand [125I]DOI; format: binding
# [3] = target: T2, human 5-HT2C receptor (Homo sapiens, UniProt P28335); test: h5-HT2C affinity, antagonist radioligand [3H]mesulergine; format: binding
# T2 sequence (P28335 33-458): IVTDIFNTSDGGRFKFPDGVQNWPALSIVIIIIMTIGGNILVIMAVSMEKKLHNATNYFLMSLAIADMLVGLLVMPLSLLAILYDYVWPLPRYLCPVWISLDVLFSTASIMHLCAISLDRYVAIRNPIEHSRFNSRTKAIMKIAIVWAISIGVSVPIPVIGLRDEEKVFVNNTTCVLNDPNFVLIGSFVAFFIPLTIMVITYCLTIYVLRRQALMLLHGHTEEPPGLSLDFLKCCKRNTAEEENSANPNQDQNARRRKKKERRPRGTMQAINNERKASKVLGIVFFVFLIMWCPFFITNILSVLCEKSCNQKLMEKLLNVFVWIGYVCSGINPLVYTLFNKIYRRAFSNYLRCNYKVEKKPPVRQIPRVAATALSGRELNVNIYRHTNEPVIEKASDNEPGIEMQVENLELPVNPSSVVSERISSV
# [4] = target: T2, human 5-HT2C receptor; test: h5-HT2C affinity, agonist radioligand [125I]DOI; format: binding
# [5] = target: 5-HT2B (Homo sapiens, UniProt P41595); test: PDSP screening affinity 5-HT2B; format: binding
# Sequence of 5-HT2B (P41595 whole entry): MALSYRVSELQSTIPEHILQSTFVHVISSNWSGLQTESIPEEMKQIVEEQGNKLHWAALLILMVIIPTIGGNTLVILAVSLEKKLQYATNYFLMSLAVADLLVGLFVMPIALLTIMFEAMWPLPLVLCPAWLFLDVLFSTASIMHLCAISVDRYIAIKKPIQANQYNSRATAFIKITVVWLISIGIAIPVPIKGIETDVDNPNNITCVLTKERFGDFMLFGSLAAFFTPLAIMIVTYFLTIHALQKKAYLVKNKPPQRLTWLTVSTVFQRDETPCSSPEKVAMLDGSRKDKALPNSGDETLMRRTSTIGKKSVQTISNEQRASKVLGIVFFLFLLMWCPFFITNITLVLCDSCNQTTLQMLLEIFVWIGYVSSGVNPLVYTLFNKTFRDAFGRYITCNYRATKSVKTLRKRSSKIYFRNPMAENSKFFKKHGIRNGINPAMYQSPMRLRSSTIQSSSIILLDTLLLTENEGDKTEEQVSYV
# [6] = target: T3, 5-HT1A (Homo sapiens, UniProt P08908); test: PDSP screening affinity 5-HT1A; format: binding; conditions: 5-HT1A affinity
# T3 sequence (P08908 1-422): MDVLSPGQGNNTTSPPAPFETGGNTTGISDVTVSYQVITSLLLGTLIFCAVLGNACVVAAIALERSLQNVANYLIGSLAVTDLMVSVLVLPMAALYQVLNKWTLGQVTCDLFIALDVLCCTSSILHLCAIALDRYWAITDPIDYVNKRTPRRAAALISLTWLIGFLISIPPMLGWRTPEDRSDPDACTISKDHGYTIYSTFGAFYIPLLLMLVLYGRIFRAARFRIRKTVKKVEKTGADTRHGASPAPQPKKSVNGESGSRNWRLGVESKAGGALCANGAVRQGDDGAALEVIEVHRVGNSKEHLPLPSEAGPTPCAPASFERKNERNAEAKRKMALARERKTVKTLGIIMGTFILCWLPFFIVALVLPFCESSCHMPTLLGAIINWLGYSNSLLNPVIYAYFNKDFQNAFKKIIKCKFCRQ
# [7] = target: 5-HT1B (Homo sapiens, UniProt P28222); test: PDSP screening affinity 5-HT1B; format: binding; conditions: 5-HT1B affinity
# Sequence of 5-HT1B (P28222 whole entry): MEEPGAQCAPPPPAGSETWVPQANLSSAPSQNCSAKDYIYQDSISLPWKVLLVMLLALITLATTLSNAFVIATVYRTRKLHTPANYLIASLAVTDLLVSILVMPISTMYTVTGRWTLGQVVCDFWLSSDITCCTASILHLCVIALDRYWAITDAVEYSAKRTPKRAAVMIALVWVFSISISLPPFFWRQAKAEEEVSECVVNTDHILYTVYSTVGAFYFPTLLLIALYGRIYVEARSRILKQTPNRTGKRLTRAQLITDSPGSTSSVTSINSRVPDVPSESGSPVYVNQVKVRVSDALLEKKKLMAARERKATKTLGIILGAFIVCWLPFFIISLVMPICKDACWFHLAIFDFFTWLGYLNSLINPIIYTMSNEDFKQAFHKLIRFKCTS
# [8] = target: 5-HT1D (Homo sapiens, UniProt P28221); test: PDSP screening affinity 5-HT1D; format: binding
# Sequence of 5-HT1D (P28221 whole entry): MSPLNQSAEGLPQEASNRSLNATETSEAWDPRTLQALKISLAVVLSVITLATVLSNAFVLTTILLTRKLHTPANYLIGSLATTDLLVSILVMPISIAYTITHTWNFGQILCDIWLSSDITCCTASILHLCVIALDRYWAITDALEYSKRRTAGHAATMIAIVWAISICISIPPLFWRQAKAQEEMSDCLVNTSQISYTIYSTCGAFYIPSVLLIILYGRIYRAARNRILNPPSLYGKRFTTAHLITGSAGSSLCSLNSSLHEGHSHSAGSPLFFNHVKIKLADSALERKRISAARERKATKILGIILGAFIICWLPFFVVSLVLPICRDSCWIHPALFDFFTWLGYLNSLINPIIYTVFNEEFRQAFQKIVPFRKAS
# [9] = target: 5-ht1e (Homo sapiens, UniProt P28566); test: PDSP screening affinity 5-ht1e; format: binding
# Sequence of 5-ht1e (P28566 whole entry): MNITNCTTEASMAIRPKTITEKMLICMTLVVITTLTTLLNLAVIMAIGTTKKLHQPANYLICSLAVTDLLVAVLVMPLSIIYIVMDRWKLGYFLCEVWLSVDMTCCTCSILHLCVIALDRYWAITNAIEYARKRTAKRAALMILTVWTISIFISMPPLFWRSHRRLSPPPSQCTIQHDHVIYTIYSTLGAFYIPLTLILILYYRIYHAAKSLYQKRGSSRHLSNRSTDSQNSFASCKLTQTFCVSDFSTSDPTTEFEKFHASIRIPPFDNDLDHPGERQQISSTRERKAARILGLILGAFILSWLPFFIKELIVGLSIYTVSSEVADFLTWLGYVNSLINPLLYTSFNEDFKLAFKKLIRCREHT
# [10] = target: T4, 5-HT3 (Homo sapiens, UniProt P46098); test: PDSP screening affinity 5-HT3; format: binding
# T4 sequence (P46098 24-478): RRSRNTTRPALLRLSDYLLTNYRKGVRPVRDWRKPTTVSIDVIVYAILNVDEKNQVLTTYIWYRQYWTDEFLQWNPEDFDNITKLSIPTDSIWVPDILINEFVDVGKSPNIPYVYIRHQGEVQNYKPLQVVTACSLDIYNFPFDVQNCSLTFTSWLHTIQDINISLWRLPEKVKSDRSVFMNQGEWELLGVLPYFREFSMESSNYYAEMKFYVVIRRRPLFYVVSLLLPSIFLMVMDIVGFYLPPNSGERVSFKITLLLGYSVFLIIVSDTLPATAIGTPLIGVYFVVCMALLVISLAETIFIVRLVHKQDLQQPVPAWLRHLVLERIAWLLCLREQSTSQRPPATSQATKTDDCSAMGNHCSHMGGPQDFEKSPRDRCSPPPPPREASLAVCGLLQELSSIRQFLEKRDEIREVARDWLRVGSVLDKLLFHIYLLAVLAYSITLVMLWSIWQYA
# [11] = target: 5-ht5a (Homo sapiens, UniProt P47898); test: PDSP screening affinity 5-ht5a; format: binding; conditions: 5-ht5a affinity
# Sequence of 5-ht5a (P47898 whole entry): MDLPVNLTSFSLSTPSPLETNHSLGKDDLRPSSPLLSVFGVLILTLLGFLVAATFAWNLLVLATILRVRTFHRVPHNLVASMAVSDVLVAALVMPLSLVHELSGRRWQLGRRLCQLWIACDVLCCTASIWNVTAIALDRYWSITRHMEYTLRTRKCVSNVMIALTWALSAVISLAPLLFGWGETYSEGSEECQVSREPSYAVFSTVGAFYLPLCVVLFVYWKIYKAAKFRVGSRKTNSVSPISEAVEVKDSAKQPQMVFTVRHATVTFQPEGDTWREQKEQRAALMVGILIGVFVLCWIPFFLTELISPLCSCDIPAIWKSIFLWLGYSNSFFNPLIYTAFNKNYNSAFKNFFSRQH
# [12] = target: 5-HT6 (Homo sapiens, UniProt P50406); test: PDSP screening affinity 5-HT6; format: binding; conditions: 5-HT6 affinity
# Sequence of 5-HT6 (P50406 whole entry): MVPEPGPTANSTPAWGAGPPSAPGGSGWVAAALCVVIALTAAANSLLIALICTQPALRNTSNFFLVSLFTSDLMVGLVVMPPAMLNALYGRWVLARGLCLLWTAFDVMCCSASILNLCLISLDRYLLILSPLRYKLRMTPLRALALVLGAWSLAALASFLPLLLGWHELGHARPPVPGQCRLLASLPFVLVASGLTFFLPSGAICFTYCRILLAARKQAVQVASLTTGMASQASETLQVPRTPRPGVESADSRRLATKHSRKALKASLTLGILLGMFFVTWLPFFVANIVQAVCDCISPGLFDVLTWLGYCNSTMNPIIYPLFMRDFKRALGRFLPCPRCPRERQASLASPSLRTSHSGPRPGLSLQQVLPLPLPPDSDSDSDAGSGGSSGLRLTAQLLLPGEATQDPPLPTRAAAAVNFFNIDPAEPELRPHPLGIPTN
# [13] = target: 5-HT7 (Homo sapiens, UniProt P34969); test: PDSP screening affinity 5-HT7; format: binding; conditions: 5-HT7 affinity
# Sequence of 5-HT7 (P34969 whole entry): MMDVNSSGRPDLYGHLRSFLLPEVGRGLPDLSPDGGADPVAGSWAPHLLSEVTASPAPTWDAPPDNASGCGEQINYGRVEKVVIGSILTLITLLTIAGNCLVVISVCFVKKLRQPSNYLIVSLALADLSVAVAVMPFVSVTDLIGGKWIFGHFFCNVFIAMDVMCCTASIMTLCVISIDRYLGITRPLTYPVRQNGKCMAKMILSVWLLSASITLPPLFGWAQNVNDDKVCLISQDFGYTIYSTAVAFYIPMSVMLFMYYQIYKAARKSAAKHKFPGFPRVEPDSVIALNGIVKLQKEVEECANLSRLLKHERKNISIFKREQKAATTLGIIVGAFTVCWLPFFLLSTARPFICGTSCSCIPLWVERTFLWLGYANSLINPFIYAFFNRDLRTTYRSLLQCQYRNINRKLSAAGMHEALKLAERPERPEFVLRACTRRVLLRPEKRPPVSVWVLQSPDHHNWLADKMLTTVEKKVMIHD
# [14] = target: r5-HT2A (Rattus norvegicus, UniProt P14842); test: Ca2+ mobilization assay; format: cell-based; conditions: for EC50: r5-HT2A EC50, Ca2+ mobilization; for Emax: read-out: r5-HT2A Emax, percentage of the maximum response to 5-HT
# Sequence of r5-HT2A (P14842 whole entry): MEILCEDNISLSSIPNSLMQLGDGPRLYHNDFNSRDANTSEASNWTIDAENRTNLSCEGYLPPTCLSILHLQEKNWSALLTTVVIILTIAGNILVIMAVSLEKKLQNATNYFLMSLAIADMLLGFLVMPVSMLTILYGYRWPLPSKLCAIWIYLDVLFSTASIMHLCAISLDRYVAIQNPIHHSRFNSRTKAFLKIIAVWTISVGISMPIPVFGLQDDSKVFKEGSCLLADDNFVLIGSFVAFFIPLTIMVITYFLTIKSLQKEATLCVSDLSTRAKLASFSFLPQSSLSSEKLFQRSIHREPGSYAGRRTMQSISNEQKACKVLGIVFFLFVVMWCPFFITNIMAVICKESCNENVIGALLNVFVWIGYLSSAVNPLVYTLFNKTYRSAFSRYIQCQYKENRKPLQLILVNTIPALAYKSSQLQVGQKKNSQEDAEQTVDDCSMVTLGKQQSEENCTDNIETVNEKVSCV
# [15] = target: h5-HT2A (Homo sapiens, UniProt P28223); test: Ca2+ mobilization assay; format: cell-based; conditions: for Emax: HEK293, read-out: h5-HT2A Emax, percentage of the maximum response to 5-HT
# Sequence of h5-HT2A (P28223 whole entry): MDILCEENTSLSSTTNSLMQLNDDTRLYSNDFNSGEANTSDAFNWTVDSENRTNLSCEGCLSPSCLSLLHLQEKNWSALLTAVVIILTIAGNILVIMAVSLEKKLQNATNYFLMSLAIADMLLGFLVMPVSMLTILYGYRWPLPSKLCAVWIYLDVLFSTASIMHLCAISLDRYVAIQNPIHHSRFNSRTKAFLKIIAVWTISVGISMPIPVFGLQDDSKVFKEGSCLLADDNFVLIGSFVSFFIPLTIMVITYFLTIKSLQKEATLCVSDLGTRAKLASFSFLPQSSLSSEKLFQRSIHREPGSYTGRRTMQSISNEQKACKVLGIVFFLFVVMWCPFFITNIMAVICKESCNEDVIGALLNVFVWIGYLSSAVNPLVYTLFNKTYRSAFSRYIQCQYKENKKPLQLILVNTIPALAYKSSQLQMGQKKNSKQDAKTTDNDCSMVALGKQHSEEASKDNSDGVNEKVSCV
# [16] = target: h5-HT2B (Homo sapiens, UniProt P41595); test: Ca2+ mobilization assay; format: cell-based; conditions: for Emax: HEK293, read-out: h5-HT2B Emax
# Sequence of h5-HT2B (P41595 whole entry): as the sequence (P41595 whole entry) above
# [17] = target: T5, r5-HT2C (Rattus norvegicus, UniProt P08909); test: Ca2+ mobilization assay; format: cell-based; conditions: for EC50: r5-HT2C EC50, Ca2+ mobilization; for Emax: read-out: r5-HT2C Emax
# T5 sequence (P08909 33-460): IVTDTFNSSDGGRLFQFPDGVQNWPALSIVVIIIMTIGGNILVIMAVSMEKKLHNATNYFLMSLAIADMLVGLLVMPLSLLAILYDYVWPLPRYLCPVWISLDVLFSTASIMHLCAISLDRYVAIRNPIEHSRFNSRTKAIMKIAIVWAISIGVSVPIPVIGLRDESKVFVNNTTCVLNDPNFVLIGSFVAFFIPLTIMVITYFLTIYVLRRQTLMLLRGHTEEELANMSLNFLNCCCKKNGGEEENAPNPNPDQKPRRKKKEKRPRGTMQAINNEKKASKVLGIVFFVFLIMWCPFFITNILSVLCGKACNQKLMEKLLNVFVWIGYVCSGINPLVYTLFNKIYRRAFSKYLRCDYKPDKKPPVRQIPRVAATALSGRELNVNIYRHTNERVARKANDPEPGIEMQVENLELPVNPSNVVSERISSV
# [18] = target: T6, h5-HT2C (Homo sapiens, UniProt P28335); test: Ca2+ mobilization assay; format: cell-based; conditions: for Emax: HEK293, read-out: h5HT2C Emax; for EC50: h5HT2C EC50, Ca2+ mobilization
# T6 sequence (P28335 33-458): T2 sequence (P28335 33-458)
# [19] = system: Male C57BL/6J mice; test: Mouse head twitch response; conditions: for activity in the HTR assay (active / inactive): doses up to 30 mg/kg
# [20] = h5-HT2B EC50, Ca2+ mobilization
# T1 sequence (P28223 whole entry): as the sequence (P28223 whole entry) above
Compound,Ki [1],Ki [2],Ki [3],Ki [4],Ki [6],Ki [7],Ki [8],Ki [9],Ki [10],Ki [11],Ki [12],Ki [13],EC50 [14],Emax [14],EC50 [15],Emax [15],Emax [16],"EC50 [16, 20]",EC50 [17],Emax [17],other results
"COc1ccc(CNCCc2cc(OC)c(I)cc2OC)cc1 [Compound 4b, N-(4-Methoxybenzyl)-2-(4-iodo-2,5-dimethoxyphenyl)ethan-1-amine]",11.7 nM,0.7 nM,14.1 nM,3.63 nM,1060 nM,1590 nM,325 nM,1280 nM,> 10 µM,1020 nM,75 nM,1570 nM,50 nM,53.8 ± 0.9%,60 nM,74.1 ± 0.8%,38 ± 2%,87 nM,132 nM,97 ± 2%,"Ki ([5]; 5-HT2B pKi ± SEM): 16.6 nM; Emax [18]: 50 ± 7%; EC50 [18]: 43.2 nM; activity in the HTR assay (active / inactive) ([19]; SC): None of the phenethylamines or tryptamines with 4-substituted N-benzyl groups, 4b, 4e, 5c, or 5f, was active"
"COc1cc(CCNCc2ccccc2Br)c(OC)cc1I [Compound 4c, N-(2-Bromobenzyl)-2-(4-iodo-2,5-dimethoxyphenyl)ethan-1-amine]",2.34 nM,0.38 nM,8.71 nM,1.02 nM,1160 nM,> 10000 nM,423 nM,> 10000 nM,> 10 µM,2290 nM,257 nM,2550 nM,36 nM,65.6 ± 1.6%,42 nM,88 ± 1.5%,83 ± 3%,134 nM,105 nM,104 ± 1%,"Ki ([5]; 5-HT2B affinity): 20 nM; EC50 ([16]; h5-HT2B pEC50 ± SEM, Ca2+ mobilization, NA = not active, Emax ≤ 15%): 151 nM; Emax [18]: 87 ± 5%; EC50 [18]: 57.6 nM; max counts ([19]; HTR counts, SC): 23.2; ED50 ([19]; Mus musculus, sc, read-out: ED50 mg/kg (95% CI), mouse head twitch): 2.31 mg/kg; activity in the HTR assay (active / inactive) ([19]; SC): active; magnitude of peak effect × vehicle ([19]; SC, mouse head twitch): 3.0 × vehicle; maximally effective dose ([19]; SC, mouse head twitch): 10 mg/kg"

# Reference: publication PMC4505863 (ACS Chemical Neuroscience, 2014)
